Measurements: PubChem BioAssay AID488890 (Southern Research Specialized Biocontainment Screening …, 2010)
pIC50: −log10 of the molar value. Inconclusive results are not listed. The source made the active and inactive calls. How the calls were made is not given here.

Each compound was assayed on Mycobacterium tuberculosis non-replicating, growth inhibition (assay: growth inhibition of non-replicating M. tuberculosis (AID 488890)).

**Q.** `Cc1cccc(NC(=O)c2n[nH]c([N+](=O)[O-])c2Br)c1C` was tested. Which pIC50 did it give?
**A.** 5.10

**Q.** With `COc1ccc(C(C#N)=C2C=CC(=NO)C=C2)cc1` as the compound, how does the IC50 read?
**A.** 16 µM (inactive)

**Q.** `O=C(CCC1CCCC1)Nc1ccc(Br)cn1` was tested. Which pIC50 did it give?
**A.** 5.41

**Q.** `O=C(OCC(=O)N1CCC(c2ccccc2)=N1)c1ccc([N+](=O)[O-])s1` was tested. Which pIC50 did it give?
**A.** 6.21

**Q.** How did the IC50 turn out when `COc1cccc(CNCCc2c[nH]c3ccccc23)c1OCc1ccc(F)cc1` was run?
**A.** 16.9 µM (inactive)

**Q.** With `CCc1ccc(NC(=O)C(=O)NNC(=O)c2cccc(OC)c2)cc1` as the compound, how does the pIC50 read?
**A.** 5.97

**Q.** With `CCOc1ccc(NC(=O)CCc2ccc(C)o2)cc1` as the compound, how does the pIC50 read?
**A.** 5.11

**Q.** Which IC50 does the source give for `COc1cccc(COC(=O)CCNC(=O)c2ccc(Cl)cc2)c1OC` here?
**A.** 11.8 µM (inactive)

**Q.** How did the pIC50 turn out when `COc1cc(/C=C2\C(=O)N(c3ccc(S(N)(=O)=O)cc3)N=C2C)ccc1OC(=O)c1ccco1` was run?
**A.** 5.13

**Q.** How did the pIC50 turn out when `Cc1ccc(Nc2ccccc2N)cc1` was run?
**A.** 5.60

**Q.** Which IC50 does the source give for `CCC(=O)Nc1nc2ccccc2n1Cc1ccc(C)cc1` here?
**A.** 20.5 µM (inactive)

**Q.** For `CCN(CC)CCNC(=O)c1[nH]c2ccc(OCc3ccccc3)cc2c1C`, which IC50 is on record?
**A.** 29.6 µM (inactive)

**Q.** How did the pIC50 turn out when `CCc1ccc(NC(=O)COc2ccc3c(c2)OCO3)cc1` was run?
**A.** 5.27

**Q.** With `O=C(NCC1CCCCC1)c1ccc([N+](=O)[O-])cc1` as the compound, how does the pIC50 read?
**A.** 6.21

**Q.** For `CN(CCCCOc1ccc(F)cc1)Cc1ccccc1`, which IC50 is on record?
**A.** 22.9 µM (inactive)

**Q.** Which IC50 does the source give for `CCOc1ccc(OCC(=O)Nc2ccc(OC)cc2)cc1` here?
**A.** 10.2 µM (inactive)

**Q.** How did the pIC50 turn out when `O=C(C/C=N\OCc1ccc([N+](=O)[O-])cc1)Nc1ccc(Cl)cc1` was run?
**A.** 5.28

**Q.** With `Nc1ccc(Nc2ccccc2)cc1` as the compound, how does the pIC50 read?
**A.** 5.22

**Q.** `C=CCc1ccc2oc(C(=O)OCC)cc(=O)c2c1O` was tested. Which pIC50 did it give?
**A.** 5.90

**Q.** `O=C(Oc1ccccc1)c1cccc(COC(=O)c2cnccn2)c1` was tested. Which IC50 did it give?
**A.** 28.6 µM (inactive)

**Q.** `O=C(N/N=C/c1ccc([N+](=O)[O-])o1)c1cc2ccccc2o1` was tested. Which pIC50 did it give?
**A.** 6.34

**Q.** With `Cn1cccc1/C=N\NC(=O)C1COc2ccccc2O1` (stereo not drawn) as the compound, how does the IC50 read?
**A.** 13.2 µM (inactive)

**Q.** `COc1ccc(C(=O)OCn2nnc3ccccc3c2=O)cc1[N+](=O)[O-]` was tested. Which IC50 did it give?
**A.** 15.8 µM (inactive)

**Q.** `Cc1ccccc1N1CCN(Cc2ccc([N+](=O)[O-])o2)CC1` was tested. Which pIC50 did it give?
**A.** 5.49

**Q.** How did the pIC50 turn out when `O=C(N/N=C/c1cc(Br)ccc1O)c1ccccc1Cl` was run?
**A.** 6.32

**Q.** With `CCCCCOc1ccc(CSC2=NCCN2)cc1[N+](=O)[O-]` as the compound, how does the IC50 read?
**A.** 23.4 µM (inactive)

**Q.** `Cc1ccc(S(=O)(=O)N2CCC(C(=O)OCc3ccccc3)CC2)cc1C` was tested. Which pIC50 did it give?
**A.** 5.01

**Q.** `O=[N+]([O-])c1ccc(N2CCCCCC2)c2nonc12` was tested. Which IC50 did it give?
**A.** 21.7 µM (inactive)

**Q.** For `CCOc1ccc(C(=O)Nc2nnc(C3=COCCO3)o2)cc1`, which IC50 is on record?
**A.** 22.2 µM (inactive)

**Q.** With `CSC1=N/C(=C\c2ccc3c(c2)OCO3)C(=O)S1` as the compound, how does the pIC50 read?
**A.** 5.31

**Q.** How did the pIC50 turn out when `CCOC(=O)N/N=C\c1ccc([N+](=O)[O-])s1` was run?
**A.** 5.04

**Q.** Which IC50 does the source give for `CCSc1nsc(NC(=O)Nc2ccc(F)cc2F)n1` here?
**A.** 18.9 µM (inactive)

**Q.** `COC(=O)COc1cccc(/C=N/NC(=O)CCSc2ccccc2)c1` was tested. Which pIC50 did it give?
**A.** 5.01

**Q.** `Cc1nc2ccc(NC(=O)COc3cccc(F)c3)cc2s1` was tested. Which pIC50 did it give?
**A.** 5.10

**Q.** How did the IC50 turn out when `O=C1/C(=C/C=C/c2ccccc2)Oc2c1ccc(O)c2CN1CCN(CCO)CC1` was run?
**A.** 36.8 µM (inactive)

**Q.** How did the IC50 turn out when `Cc1cc(Cl)cc(C)c1OCCCCn1ccnc1` was run?
**A.** 16.9 µM (inactive)

**Q.** How did the pIC50 turn out when `COc1ccc(C(=O)NNC2=C(C(=O)C(F)(F)F)CCC2)cc1` was run?
**A.** 5.72

**Q.** For `O=C(COc1ccc(Cl)cc1)Nc1ccc2[nH]ncc2c1`, which IC50 is on record?
**A.** 26.5 µM (inactive)

**Q.** Which IC50 does the source give for `c1ccc(-c2cccc(-c3ccccn3)n2)nc1` here?
**A.** 19.7 µM (inactive)

**Q.** With `O=C(/C=C/Nc1ccccc1O)c1ccco1` as the compound, how does the pIC50 read?
**A.** 5.69

**Q.** How did the IC50 turn out when `COc1cc(C=O)ccc1OCCOCCOc1ccc(Cl)cc1` was run?
**A.** 27.8 µM (inactive)

**Q.** How did the pIC50 turn out when `Cc1cc(C)n(-c2nc(SCCN(C)C)c3c4c(sc3n2)CCCC4)n1` was run?
**A.** 5.17

**Q.** `Cc1ccc(CNCc2cc(Cl)ccc2O)cc1` was tested. Which IC50 did it give?
**A.** 12.8 µM (inactive)

**Q.** With `Cc1cccc(Cc2cnc(NC(=O)C3=NCCN3)s2)c1` as the compound, how does the pIC50 read?
**A.** 5.32

**Q.** With `COc1cc(OC)cc(C(=O)Oc2c(CN3CCOCC3)cc(Cl)c3cccnc23)c1` as the compound, how does the pIC50 read?
**A.** 5.10

**Q.** `Oc1ccccc1/C=N/Nc1ncc(Br)cn1` was tested. Which pIC50 did it give?
**A.** 5.95

**Q.** How did the IC50 turn out when `Cc1ccc(-c2noc(CCC(=O)Nc3cccc(C#N)c3)n2)cc1` was run?
**A.** 17.4 µM (inactive)

**Q.** How did the pIC50 turn out when `OC(CNCC1CCCO1)Cn1c2ccc(Cl)cc2c2cc(Cl)ccc21` (stereo not drawn) was run?
**A.** 5.08

**Q.** `CCCN1C(=O)SC(CC(=O)Nc2ccccc2)C1=O` (stereo not drawn) was tested. Which IC50 did it give?
**A.** 17.5 µM (inactive)

**Q.** `Cc1ccc(NC(=O)COCC(=O)Nc2ccc(C)cc2)cc1` was tested. Which IC50 did it give?
**A.** 14.6 µM (inactive)

**Q.** `O=C(OCC(=O)N1CCc2ccccc21)c1ccc([N+](=O)[O-])cc1` was tested. Which IC50 did it give?
**A.** 12.5 µM (inactive)

**Q.** Which IC50 does the source give for `COc1ccc(O)c(C(=O)CC(=O)c2ccc(F)cc2)c1` here?
**A.** 17.2 µM (inactive)

**Q.** How did the pIC50 turn out when `O=C(COc1cccc2ccccc12)Nc1ccc(Cl)cc1C(=O)O` was run?
**A.** 5.20

**Q.** How did the pIC50 turn out when `O=C(OCc1cccc([N+](=O)[O-])c1)c1ccc2ccccc2n1` was run?
**A.** 5.14

**Q.** `CCC(=O)Nc1nc2ccccc2n1Cc1ccccc1` was tested. Which pIC50 did it give?
**A.** 5.31

**Q.** How did the pIC50 turn out when `Cc1cccc(NCc2nnc(-c3ccccc3)o2)c1C` was run?
**A.** 5.31

**Q.** Which IC50 does the source give for `O=C(Nc1nnc(-c2ccc(Cl)cc2)o1)C1=COCCO1` here?
**A.** 14 µM (inactive)

**Q.** `Cc1ccc(S(=O)(=O)Nc2cccc3ncccc23)s1` was tested. Which pIC50 did it give?
**A.** 5.27
